US20150297643A1, “INHIBITION OF RHO AND OR ROCK AND CELL TRANSPLANTATION” (priority 2012, published 2015)

Tested on: retinal ganglion cells (RGCs)
Assay type: in vivo, rat

**Q.** With `C[C@@H](N)C1CCN(S(=O)(=O)c2cccc3cnccc23)CC1` [BA-1049] as the compound, how does the “neuroprotection of RGCs” value (highest dose tested (10 uM and 100 uM BA-1049 tested)) read?
**A.** The value was “modest neuroprotection”.

**Q.** What about the “effect on RGC survival (FIG. 5)” value (very high concentration (1 mM)) of the same compound?
**A.** The value was “detectable effect”.

**Q.** With `C[C@@H](N)[C@H]1CC[C@H](C(=O)Nc2ccncc2)CC1` [Y-27632] as the compound, how does the “neuroprotective effect on RGCs” value (100 uM and 1 mM Y-27632, one week after optic nerve injury) read?
**A.** The value was “No neuroprotective effect”.

**Q.** What about the “rescue of neurons from trauma-induced cell death (Example 8, summary)” value (rat, in vivo) of the same compound?
**A.** Its value is “not able to rescue neurons from trauma-induced cell death”.

**Q.** For C3-transferase, which “RGCs protected after axotomy” value (rat, in vivo) is on record?
**A.** Its value is 80%.
